In patent US20210244720A1, “Therapeutic Tyrosine Kinase Inhibitors for Relapsing Multiple Sclerosis (RMS)” (Genzyme Corporation, priority 2020, published 2021):

What was measured:
[1] = Pharmacokinetics in RMS patients, fed versus fasting status; format: in vivo, human; settings: RMS patients of the Phase 2b study
Method: An additional PK sample is collected 3 hours post-dose (±0.5 hour) at visits during Weeks 4 and 12 for all participants in both cohorts. Data of the most recent meal prior to PK sampling are noted in the eCRF.
Additional PK parameters such as Cmax, […], and AUC at steady state are estimated using a population PK approach.
Samples from the two groups were obtained and anaylzed to evaluate pharmacokinetics parameters as described in Example 1.10 above.

CYP3A = assay: Preclinical drug metabolism studies, CYP3A; format: in vitro ADME
Excerpt: See Table 12 for the list of drugs not to be used.

[2] = tested on: RGS1 mRNA in naive mouse microglia; assay: Naive primary mouse microglia, RGS1 quantitative Real time PCR; format: cell-based; settings: 2.5 μM, 6 and 24 hours
Method: Primary mouse microglia were prepared from postnatal mice as described above, and were treated with 2.5 μM of the BTKi inhibitor for 6 and 24 hours. RNA was isolated and was analyzed by quantitative Real time PCR (Taqman, Thermo Fisher).

CD19+ B-cell counts = assay: Phase 1 absolute CD19+ B-cell counts
Excerpt: Dose regimen: The dose range chosen for this study is informed by several assessments.

C=CC(=O)N1CCC[C@@H](n2c(=O)n(-c3ccc(Oc4ccccc4)cc3)c3c(N)nccc32)C1 [the BTK inhibitor, (R)-1-(1-acryloylpiperidin-3-yl)-4-amino-3-(4-phenoxyphenyl)-1H-imidazo[4,5-c]pyridin-2(3H)-one]
median AUC, fed state compared to fasted state [1]: substantially increased | CYP3A metabolism (CYP3A): substrate | RGS1 mRNA level in naive mouse microglia [2]: reduced | dose at which the dose-response relationship for the CD19+ B-cell increase is maximal (CD19+ B-cell counts): approximately 30 mg once daily
